According to the NIST ThermoML archive (doi:10.1016/j.jct.2018.05.027):

Assays:
[1] = xn = mol fraction of the nth substance listed; details: Liquid, Vibrating wire viscometry, x1 = 1
[2] = Liquid

CCC(C)O (centres undefined) [butan-2-ol] + Cc1ccc(C)c(C)c1
viscosity [mPa·s], [1]
Details | 293.15 K | 298.15 K | 313.15 K | 333.15 K | 353.15 K
100 kPa | 3.767 | 3.102 | 1.839 | 1.007 | 0.6198
1000 kPa | 3.813 | 3.123 | 1.862 | 1.023 | 0.6273
5000 kPa | 3.978 | 3.28 | 1.947 | 1.078 | 0.6577
10000 kPa | 4.235 | 3.462 | 2.041 | 1.133 | 0.6999
20000 kPa | 4.696 | 3.873 | 2.262 | 1.254 | 0.7717
30000 kPa | 5.159 | 4.253 | 2.503 | 1.372 | 0.8354
40000 kPa | 5.693 | 4.697 | 2.734 | 1.491 | 0.9088
50000 kPa | 6.274 | 5.142 | 2.99 | 1.624 | 0.9898
60000 kPa | 6.831 | 5.553 | 3.237 | 1.759 | 1.07
70000 kPa | 7.377 | 6.044 | 3.558 | 1.905 | 1.151
80000 kPa | 8.056 | 6.544 | 3.841 | 2.081 | 1.242
100000 kPa | 9.598 | 7.646 | 4.456 | 2.427 | 1.444
120000 kPa | 11.31 | 9.053 | 5.179 | 2.716 | 1.644
140000 kPa | 13.38 | 10.43 | 5.933 | 3.099 | 1.845

CCC(C)O (centres undefined) [butan-2-ol]
viscosity [mPa·s], [2]
Details | 293.15 K | 298.15 K | 313.15 K | 333.15 K | 353.15 K
100 kPa, Concentric cylinders viscometry | 3.744 | – | 1.832 | 1.011 | 0.6218
100 kPa, Vibrating wire viscometry | 3.767 | 3.102 | 1.839 | 1.007 | 0.6198
1000 kPa, Vibrating wire viscometry | 3.813 | 3.123 | 1.862 | 1.023 | 0.6273
5000 kPa, Vibrating wire viscometry | 3.978 | 3.28 | 1.947 | 1.078 | 0.6577
10000 kPa, Vibrating wire viscometry | 4.235 | 3.462 | 2.041 | 1.133 | 0.6999
20000 kPa, Vibrating wire viscometry | 4.696 | 3.873 | 2.262 | 1.254 | 0.7717
30000 kPa, Vibrating wire viscometry | 5.159 | 4.253 | 2.503 | 1.372 | 0.8354
40000 kPa, Vibrating wire viscometry | 5.693 | 4.697 | 2.734 | 1.491 | 0.9088
50000 kPa, Vibrating wire viscometry | 6.274 | 5.142 | 2.99 | 1.624 | 0.9898
60000 kPa, Vibrating wire viscometry | 6.831 | 5.553 | 3.237 | 1.759 | 1.07
70000 kPa, Vibrating wire viscometry | 7.377 | 6.044 | 3.558 | 1.905 | 1.151
80000 kPa, Vibrating wire viscometry | 8.056 | 6.544 | 3.841 | 2.081 | 1.242
100000 kPa, Vibrating wire viscometry | 9.598 | 7.646 | 4.456 | 2.427 | 1.444
120000 kPa, Vibrating wire viscometry | 11.31 | 9.053 | 5.179 | 2.716 | 1.644
140000 kPa, Vibrating wire viscometry | 13.38 | 10.43 | 5.933 | 3.099 | 1.845
